Data reported in patent US9456602B2, “Method for the formulation of hand sanitizer” (Working Bugs, LLC, priority 2011, dated 2016).

Legend:
microorganisms = settings: 1996 paper, Fundamental and Applied Toxicology; cited from earlier work
E. coli bacteria [1] = test: Growth test of E. coli after exposure to sanitizer, dilution plating (Example 2); format: cell-based
Procedure: A 50 mL culture of the bacterium […] marcescens (S. marcescens) was grown, and four compounds were tested: an ethanol-based hand sanitizer currently on the market with 63% ethyl alcohol as the active ingredient, 60% isopropyl alcohol, and water as a control. 0.05 mL of the culture was exposed to one of the compounds for 15 and 60 seconds (except for the water, which was exposed for 30 seconds), and diluted by factors of powers of ten from a 10^-1 dilution to a 10^-10 dilution. 1 mL of each dilution was plated onto a CASO (a type of media) plate, and was incubated at 25 degrees Celsius (77 degrees Fahrenheit) for 48 hours. The colonies on the plates were then counted. The following is a table of the number of colonies on each plate (note-“Lawn” means that there were too many colonies to count individually). Example 2 followed the same protocol as Example 1, except E. coli bacteria were used instead of S. marcescens.

E. coli bacteria [2] = test: Growth test of E. coli, 15 s exposure, CASO plate (Example 4); format: cell-based; settings: exposed 15 seconds, 0.1 mL plated
Procedure: (§1) Both S. marcescens and E. coil were cultured in CASO broth overnight. The cells were exposed to one of four compounds for 15 seconds: DE broth, 60% Isopropyl Alcohol (IPA), A hand sanitizer on the market with 62% ethanol as an active ingredient (HSM), and the hand sanitizer specified in the patent (WB). The samples were then diluted by factors of powers of ten from a 10^−1 dilution to a 10^−10 dilution. 0.1 mL of each dilution was then plated onto a CASO plate, and then incubated for 24 hours. Note—the abbreviation “TNTC” stands for “too numerous to count”. “Lawn” represents a sample that was filled with bacteria.

S. marcescens bacteria [3] = test: Growth test of S. marcescens, 15 s exposure (Example 5); format: cell-based; settings: exposed 15 seconds
Procedure: (§2) Both S. marcescens and E. coil were cultured in CASO broth overnight. The cells were exposed to one of four compounds for 15 seconds: DE broth, 60% Isopropyl Alcohol (IPA), A hand sanitizer on the market with 62% ethanol as an active ingredient (HSM), and the hand sanitizer specified in the patent (WB). The samples were then diluted by factors of powers of ten from a 10^−1 dilution to a 10^−10 dilution. 0.1 mL of each dilution was then plated onto a CASO plate, and then incubated for 24 hours. For Example 5, there was no ethanol present in the hand sanitizer formulation. The formulation consisted of 45% by volume of n-butanol, 10% of the humectant, and the remainder being water. The protocol followed for Example 5 was the same as the protocol for Example 4.

S. marcescens bacteria [4] = test: Growth test of S. marcescens, 15 s exposure, CASO plate (Example 4); format: cell-based; settings: exposed 15 seconds, 0.1 mL plated
Procedure: as §1

[5] = test system: Seratia marcescens (S. marcescens); test: Growth test of S. marcescens after exposure to sanitizer, dilution plating (Example 1); format: cell-based
Procedure: A 50 mL culture of the bacterium […] marcescens (S. marcescens) was grown, and four compounds were tested: an ethanol-based hand sanitizer currently on the market with 63% ethyl alcohol as the active ingredient, 60% isopropyl alcohol, and water as a control. 0.05 mL of the culture was exposed to one of the compounds for 15 and 60 seconds (except for the water, which was exposed for 30 seconds), and diluted by factors of powers of ten from a 10^-1 dilution to a 10^-10 dilution. 1 mL of each dilution was plated onto a CASO (a type of media) plate, and was incubated at 25 degrees Celsius (77 degrees Fahrenheit) for 48 hours. The colonies on the plates were then counted. The following is a table of the number of colonies on each plate (note-“Lawn” means that there were too many colonies to count individually).

E. coli bacteria [6] = test: Growth test of E. coli, different growth medium, 0.5 mL plated (Example 3); format: cell-based; settings: exposed 10 s
Procedure: A 50 mL culture of the bacterium […] marcescens (S. marcescens) was grown, and four compounds were tested: an ethanol-based hand sanitizer currently on the market with 63% ethyl alcohol as the active ingredient, 60% isopropyl alcohol, and water as a control. 0.05 mL of the culture was exposed to one of the compounds for 15 and 60 seconds (except for the water, which was exposed for 30 seconds), and diluted by factors of powers of ten from a 10^-1 dilution to a 10^-10 dilution. 1 mL of each dilution was plated onto a CASO (a type of media) plate, and was incubated at 25 degrees Celsius (77 degrees Fahrenheit) for 48 hours. The colonies on the plates were then counted. The following is a table of the number of colonies on each plate (note-“Lawn” means that there were too many colonies to count individually). Example 2 followed the same protocol as Example 1, except E. coli bacteria were used instead of S. marcescens. Example 3 followed the same protocol as Example 2, except for the following: A different type of growth medium was used on the plates, and 0.5 mL of culture was plated onto each plate instead of 1 mL in order to prevent flooding the plate. In this Example, 60% isopropanol, an ethanol-based hand sanitizer on the market and the hand sanitizer proposed in the patent were all exposed to bacteria for 10 seconds, than plated.

E. coli bacteria [7] = test: Growth test of E. coli, 15 s exposure (Example 5); format: cell-based; settings: exposed 15 seconds
Procedure: as §2

CCCCCO [1-pentanol]
effectiveness in killing microorganisms compared with ethanol (microorganisms): more effective

CCCCO [1-butanol]
effectiveness in killing microorganisms compared with ethanol (microorganisms): more effective

CCCO [1-propanol]
effectiveness in killing microorganisms compared with ethanol (microorganisms): more effective

CC(C)O [IPA, isopropyl alcohol]
number of colonies on plate (E. coli bacteria [1]; exposed 15 s, 10^−1 dilution): 0 colonies | number of colonies on plate (E. coli bacteria [1]; exposed 15 s, 10^−2 dilution): 0 colonies | number of colonies on plate (E. coli bacteria [1]; exposed 15 s, 10^−3 dilution): 0 colonies | number of colonies on plate (E. coli bacteria [1]; exposed 15 s, 10^−4 dilution): 0 colonies | number of colonies on plate (E. coli bacteria [1]; exposed 15 s, 10^−5 dilution): 0 colonies | number of colonies on plate (E. coli bacteria [1]; exposed 15 s, 10^−6 dilution): 0 colonies | number of colonies on plate (E. coli bacteria [1]; exposed 15 s, 10^−7 dilution): 0 colonies | number of colonies on plate (E. coli bacteria [1]; exposed 15 s, 10^−8 dilution): 0 colonies | number of colonies on plate (E. coli bacteria [1]; exposed 15 s, 10^−9 dilution): 0 colonies | number of colonies on plate (E. coli bacteria [1]; exposed 15 s, 10^−10 dilution): 0 colonies | number of colonies on plate (E. coli bacteria [1]; exposed 60 s, 10^−1 dilution): 0 colonies | number of colonies on plate (E. coli bacteria [1]; exposed 60 s, 10^−2 dilution): 0 colonies | number of colonies on plate (E. coli bacteria [1]; exposed 60 s, 10^−3 dilution): 0 colonies | number of colonies on plate (E. coli bacteria [1]; exposed 60 s, 10^−4 dilution): 0 colonies | number of colonies on plate (E. coli bacteria [1]; exposed 60 s, 10^−5 dilution): 0 colonies | number of colonies on plate (E. coli bacteria [1]; exposed 60 s, 10^−6 dilution): 0 colonies | number of colonies on plate (E. coli bacteria [1]; exposed 60 s, 10^−7 dilution): 0 colonies | number of colonies on plate (E. coli bacteria [1]; exposed 60 s, 10^−8 dilution): 0 colonies | number of colonies on plate (E. coli bacteria [1]; exposed 60 s, 10^−9 dilution): 0 colonies | number of colonies on plate (E. coli bacteria [1]; exposed 60 s, 10^−10 dilution): 0 colonies | growth test plate count (E. coli bacteria [2]; 10^−1 dilution): 0 | growth test plate count (E. coli bacteria [2]; 10^−2 dilution): 0 | growth test plate count (E. coli bacteria [2]; 10^−3 dilution): 0 | growth test plate count (E. coli bacteria [2]; 10^−4 dilution): 0 | growth test plate count (E. coli bacteria [2]; 10^−5 dilution): 0 | growth test plate count (S. marcescens bacteria [3]; 10^−1 dilution): 0 | growth test plate count (S. marcescens bacteria [3]; 10^−2 dilution): 0 | growth test plate count (S. marcescens bacteria [3]; 10^−3 dilution): 0 | growth test plate count (S. marcescens bacteria [3]; 10^−4 dilution): 0 | growth test plate count (S. marcescens bacteria [3]; 10^−5 dilution): 0 | growth test plate count (S. marcescens bacteria [4]; 10^−1 dilution): 1 | growth test plate count (S. marcescens bacteria [4]; 10^−2 dilution): 3 | growth test plate count (S. marcescens bacteria [4]; 10^−3 dilution): 10 | growth test plate count (S. marcescens bacteria [4]; 10^−4 dilution): 6 | growth test plate count (S. marcescens bacteria [4]; 10^−5 dilution): 2 | number of colonies on plate ([5]; exposed 15 s, 10^−1 dilution): 0 colonies | number of colonies on plate ([5]; exposed 15 s, 10^−2 dilution): 0 colonies | number of colonies on plate ([5]; exposed 15 s, 10^−3 dilution): 0 colonies | number of colonies on plate ([5]; exposed 15 s, 10^−4 dilution): 0 colonies | number of colonies on plate ([5]; exposed 15 s, 10^−5 dilution): 0 colonies | number of colonies on plate ([5]; exposed 15 s, 10^−6 dilution): 0 colonies | number of colonies on plate ([5]; exposed 15 s, 10^−7 dilution): 0 colonies | number of colonies on plate ([5]; exposed 15 s, 10^−8 dilution): 0 colonies | number of colonies on plate ([5]; exposed 15 s, 10^−9 dilution): 0 colonies | number of colonies on plate ([5]; exposed 15 s, 10^−10 dilution): 0 colonies | number of colonies on plate ([5]; exposed 60 s, 10^−1 dilution): 0 colonies | number of colonies on plate ([5]; exposed 60 s, 10^−2 dilution): 0 colonies | number of colonies on plate ([5]; exposed 60 s, 10^−3 dilution): 0 colonies | number of colonies on plate ([5]; exposed 60 s, 10^−4 dilution): 0 colonies | number of colonies on plate ([5]; exposed 60 s, 10^−5 dilution): 0 colonies | number of colonies on plate ([5]; exposed 60 s, 10^−6 dilution): 0 colonies | number of colonies on plate ([5]; exposed 60 s, 10^−7 dilution): 0 colonies | number of colonies on plate ([5]; exposed 60 s, 10^−8 dilution): 0 colonies | number of colonies on plate ([5]; exposed 60 s, 10^−9 dilution): 0 colonies | number of colonies on plate ([5]; exposed 60 s, 10^−10 dilution): 0 colonies | number of colonies on plate (E. coli bacteria [6]; 10^−1 dilution): 0 colonies | number of colonies on plate (E. coli bacteria [6]; 10^−2 dilution): 0 colonies | number of colonies on plate (E. coli bacteria [6]; 10^−3 dilution): 0 colonies | number of colonies on plate (E. coli bacteria [6]; 10^−4 dilution): 0 colonies | number of colonies on plate (E. coli bacteria [6]; 10^−5 dilution): 0 colonies | number of colonies on plate (E. coli bacteria [6]; 10^−6 dilution): 0 colonies | number of colonies on plate (E. coli bacteria [6]; 10^−7 dilution): 0 colonies | number of colonies on plate (E. coli bacteria [6]; 10^−8 dilution): 0 colonies | number of colonies on plate (E. coli bacteria [6]; 10^−9 dilution): 0 colonies | number of colonies on plate (E. coli bacteria [6]; 10^−10 dilution): 0 colonies | growth test plate count (E. coli bacteria [7]; 10^−1 dilution): 0 | growth test plate count (E. coli bacteria [7]; 10^−2 dilution): 0 | growth test plate count (E. coli bacteria [7]; 10^−3 dilution): 0 | growth test plate count (E. coli bacteria [7]; 10^−4 dilution): 0 | growth test plate count (E. coli bacteria [7]; 10^−5 dilution): 0
